Data taken from patent US10927078B2, “Modulators of indoleamine 2,3-dioxygenase” (GLAXOSMITHKLINE INTELLECTUAL PROPERTY DEVELOPMENT LIMITED, priority 2017, dated 2021).

target: indoleamine 2, 3-dioxygenase (IDO1) (Homo sapiens, UniProt P14902); assay: PBMC IDO1 assay (kynurenine via mass spectrometry); type: cell-based; conditions: not given
Protocol: Compounds of the present invention were tested via high-throughput cellular assays utilizing detection of kynurenine via mass spectrometry and cytotoxicity as end-points. For the mass spectrometry and cytotoxicity assays, human peripheral blood mononuclear cells (PBMC) (PB003F; AllCells®, Alameda, Calif.) were stimulated with human interferon-γ (IFN-γ) (Sigma-Aldrich Corporation, St. Louis, Mo.) and lipopolysaccharide from Salmonella minnesota (LPS) (Invivogen, San Diego, Calif.) to induce the expression of indoleamine 2, 3-dioxygenase (IDO1). Compounds with IDO1 inhibitory properties decreased the amount of kynurenine produced by the cells via the tryptophan catabolic pathway. Cellular toxicity due to the effect of compound treatment was measured using CellTiter-Glo® reagent (CTG) (Promega Corporation, Madison, Wis.), which is based on luminescent detection of ATP, an indicator of metabolically active cells.
In preparation for the assays, test compounds were serially diluted 3-fold in DMSO from a typical top concentration of 5 mM and plated at 0.5 μL in 384-well, polystyrene, clear bottom, tissue culture treated plates with lids (Greiner Bio-One, Kremsmünster, Austria) to generate 11-point dose response curves. Low control wells (0% kynurenine or 100% cytotoxicity) contained either 0.5 μL of DMSO in the presence of unstimulated (-IFN-γ/-LPS) PBMCs for the mass spectrometry assay or 0.5 μL of DMSO in the absence of cells for the cytotoxicity assay, and high control wells (100% kynurenine or 0% cytotoxicity) contained 0.5 μL of DMSO in the presence of stimulated (+IFN-γ/+LPS) PBMCs for both the mass spectrometry and cytotoxicity assays.
Frozen stocks of PBMCs were washed and recovered in RPMI 1640 medium (Thermo Fisher Scientific, Inc., Waltham, Mass.) supplemented with 10% v/v heat-inactivated fetal bovine serum (FBS) (Thermo Fisher Scientific, Inc., Waltham, Mass.), and 1× penicillin-streptomycin antibiotic solution (Thermo Fisher Scientific, Inc., Waltham, Mass.). The cells were diluted to 1,000,000 cells/mL in the supplemented RPMI 1640 medium. 50 μL of either the cell suspension, for the mass spectrometry assay, or medium alone, for the cytotoxicity assay, were added to the low control wells, on the previously prepared 384-well compound plates, resulting in 50,000 cells/well or 0 cells/well respectively. IFN-γ and LPS were added to the remaining cell suspension at final concentrations of 100 ng/ml and 50 ng/ml respectively, and 50 μL of the stimulated cells were added to all remaining wells on the 384-well compound plates. The plates, with lids, were then placed in a 37° C., 5% CO2 humidified incubator for 2 days.
Following incubation, the 384-well plates were removed from the incubator and allowed to equilibrate to room temperature for 30 minutes. For the cytotoxicity assay, CellTiter-Glo® was prepared according to the manufacturer's instructions, and 40 μL were added to each plate well. After a twenty minute incubation at room temperature, luminescence was read on an EnVision® Multilabel Reader (PerkinElmer Inc., Waltham, Mass.). For the mass spectrometry assay, 10 μL of supernatant from each well of the compound-treated plates were added to 40 μL of acetonitrile, containing 10 μM of an internal standard for normalization, in 384-well, polypropylene, V-bottom plates (Greiner Bio-One, Kremsmünster, Austria) to extract the organic analytes. Following centrifugation at 2000 rpm for 10 minutes, 10 μL from each well of the acetonitrile extraction plates were added to 90 μL of sterile, distilled H2O in 384-well, polypropylene, V-bottom plates for analysis of kynurenine and the internal standard on the RapidFire 300 (Agilent Technologies, Santa Clara, Calif.) and 4000 QTRAP MS (SCIEX, Framingham, Mass.). MS data were integrated using Agilent Technologies' RapidFire Integrator software, and data were normalized for analysis as a ratio of kynurenine to the internal standard. […]

indoleamine 2, 3-dioxygenase (IDO1), sequence (P14902 whole entry): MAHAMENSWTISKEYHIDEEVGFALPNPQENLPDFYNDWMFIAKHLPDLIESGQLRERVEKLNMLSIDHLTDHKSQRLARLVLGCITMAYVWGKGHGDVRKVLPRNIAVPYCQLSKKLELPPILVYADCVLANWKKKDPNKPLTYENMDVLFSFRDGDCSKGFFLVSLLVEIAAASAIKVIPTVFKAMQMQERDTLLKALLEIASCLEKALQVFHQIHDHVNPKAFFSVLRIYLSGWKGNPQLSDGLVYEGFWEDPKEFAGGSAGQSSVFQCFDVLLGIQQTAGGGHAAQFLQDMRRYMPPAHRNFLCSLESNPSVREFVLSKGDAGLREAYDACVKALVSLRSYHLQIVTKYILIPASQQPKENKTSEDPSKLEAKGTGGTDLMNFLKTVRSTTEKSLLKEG

Row | SMILES | IC50
1 | COc1ncccc1OC(=O)N1CCC(C(CC(C)C)NC(=O)c2ccc(F)cc2)CC1 (stereo not shown) [Example 30, 2-methoxypyridin-3-yl 4-{1-[(4-fluorophenyl)formamido]-3-methylbutyl}piperidine-1-carboxylate] | 5.01 nM
2 | Cc1ncccc1OC(=O)N1CCC([C@@H](CC(C)C)NC(=O)c2ccc(Cl)cc2)CC1 [Example 104, (R)-2-methylpyridin-3-yl 4-(1-(4-chlorobenzamido)-3-methylbutyl)piperidine-1-carboxylate] | 1.26 nM
3 | O=C(NC(c1ccncc1)C1CCN(C(=O)Oc2cccnc2)CC1)c1ccc(F)cc1 (stereo not shown) [Example 87, pyridin-3-yl 4-{[(4-fluorophenyl)formamido](pyridin-4-yl)methyl}piperidine-1-carboxylate] | 631 nM
4 | Cc1ncccc1OC(=O)N1CCC(C(CC(C)C)NC(=O)c2ccc(F)cc2)CC1 (stereo not shown) [Example 18, 2-methylpyridin-3-yl 4-{1-[(4-fluorophenyl)formamido]-3-methylbutyl}piperidine-1-carboxylate] | 3.16 nM

same assay, conditions: human PBMC stimulated with IFN-γ and LPS, 2 days, kynurenine by mass spectrometry; recorded as pIC50; read-out: PBMC PXC50_ (converted)

Row | SMILES | IC50
5 | C[C@H](NC(=O)c1ccc(Cl)s1)C1CCN(C(=O)Oc2ccccc2)CC1 [Example 95, phenyl 4-[(1S)-1-[(5-chlorothiophen-2-yl)formamido]ethyl]piperidine-1-carboxylate] | 1000 nM
6 | Cc1cnccc1OC(=O)N1CCC(C(CC(C)C)NC(=O)c2ccc(Cl)cc2)CC1 (stereo not shown) [Example 29, 3-methylpyridin-4-yl 4-{1-[(4-chlorophenyl)formamido]-3-methylbutyl}piperidine-1-carboxylate] | 5.01 nM
7 | O=C(N[C@@H](C1CC1)C1CCN(C(=O)Oc2ccccc2)CC1)c1ccc(Cl)s1 [Example 91, phenyl 4-[(S)-[(5-chlorothiophen-2-yl)formamido](cyclopropyl)methyl]piperidine-1-carboxylate] | 631 nM
8 | Cc1ncnc(C)c1OC(=O)N1CCC([C@@H](CC(C)C)NC(=O)c2ccc(Cl)cc2)CC1 [Example 107, (R)-4,6-dimethylpyrimidin-5-yl 4-(1-(4-chlorobenzamido)-3-methylbutyl)piperidine-1-carboxylate] | 1.58 nM
9 | CC(C)(C)OC(=O)N1CCC(C(NC(=O)c2cccnc2)c2ccccc2)CC1 (stereo not shown) [Example 102, tert-butyl 4-{phenyl[(pyridin-3-yl)formamido]methyl}piperidine-1-carboxylate] | 5010 nM
10 | CC(C)CC(NC(=O)c1ccc(F)cc1)C1CCN(C(=O)Oc2ccnc(F)c2F)CC1 (stereo not shown) [Example 48, 2,3-difluoropyridin-4-yl 4-{1-[(4-fluorophenyl)formamido]-3-methylbutyl}piperidine-1-carboxylate] | 10 nM
11 | O=C(NC(C1CC1)C1CCN(C(=O)Oc2ccnc(F)c2)CC1)c1ccc(F)cc1 (stereo not shown) [Example 71, 2-fluoropyridin-4-yl 4-{cyclopropyl[(4-fluorophenyl)formamido]methyl}piperidine-1-carboxylate] | 158 nM
12 | Cc1c(F)cccc1OC(=O)N1CCC([C@@H](C)NC(=O)c2ccc(Cl)cc2)CC1 [Example 68, 3-fluoro-2-methylphenyl 4-[(1R)-1-[(4-chlorophenyl)formamido]ethyl]piperidine-1-carboxylate] | 126 nM
13 | CC(C)CC(NC(=O)c1ccccc1)C1CCN(C(=O)Oc2ccccc2)CC1 (stereo not shown) [Example 39, phenyl 4-[3-methyl-1-(phenylformamido)butyl]piperidine-1-carboxylate] | 7.94 nM
14 | N#Cc1ccc(C(=O)NC(c2ccccc2)C2CCN(C(=O)Oc3ccccc3)CC2)nc1 (stereo not shown) [Example 89, phenyl 4-{[(5-cyanopyridin-2-yl)formamido](phenyl)methyl}piperidine-1-carboxylate] | 631 nM
15 | COc1cc(OC(=O)N2CCC(C(NC(=O)c3ccc(F)cc3)C3CC3)CC2)ccn1 (stereo not shown) [Example 86, 2-methoxypyridin-4-yl 4-{cyclopropyl[(4-fluorophenyl)formamido]methyl}piperidine-1-carboxylate] | 631 nM
16 | CC(C)CC(NC(=O)c1ccc(Cl)cc1)C1CCN(C(=O)OCc2nccs2)CC1 (stereo not shown) [Example 64, (1,3-thiazol-2-yl)methyl 4-{1-[(4-chlorophenyl)formamido]-3-methylbutyl}piperidine-1-carboxylate] | 79.4 nM
17 | Cc1c(F)cccc1OC(=O)N1CCC(C(NC(=O)c2ccc(F)cc2)C2CC2)CC1 (stereo not shown) [Example 61, 3-fluoro-2-methylphenyl 4-{cyclopropyl[(4-fluorophenyl)formamido]methyl}piperidine-1-carboxylate] | 63.1 nM
18 | Cc1c(F)cccc1OC(=O)N1CCC([C@@H](CCCO)NC(=O)c2ccc(F)cc2)CC1 [Example 80, 3-fluoro-2-methylphenyl 4-[(1R)-1-[(4-fluorophenyl)formamido]-4-hydroxybutyl]piperidine-1-carboxylate] | 316 nM
19 | CC(C)C[C@H](NC(=O)c1ccc(F)cc1)C1CCN(C(=O)Oc2ccccc2)CC1 [Example 69, phenyl 4-[(1S)-1-[(4-fluorophenyl)formamido]-3-methylbutyl]piperidine-1-carboxylate] | 126 nM
20 | Cc1c(F)cccc1OC(=O)N1CCC(C(CC(C)C)NC(=O)c2ccc(F)cc2)CC1 (stereo not shown) [Example 9, 3-fluoro-2-methylphenyl 4-{1-[(4-fluorophenyl)formamido]-3-methylbutyl}piperidine-1-carboxylate] | 2.51 nM
21 | C#Cc1ccc(C(=O)NC(c2ccccc2)C2CCN(C(=O)OC(C)(C)C)CC2)cc1 (stereo not shown) [Example 78, tert-butyl 4-{[(4-ethynylphenyl)formamido](phenyl)methyl}piperidine-1-carboxylate] | 251 nM
22 | COc1c(F)cccc1OC(=O)N1CCC(C(CC(C)C)NC(=O)c2ccc(F)cc2)CC1 (stereo not shown) [Example 13, 3-fluoro-2-methoxyphenyl 4-{1-[(4-fluorophenyl)formamido]-3-methylbutyl}piperidine-1-carboxylate] | 2.51 nM
23 | CC(C)CC(NC(=O)c1ccc(Cl)cc1)C1CCN(C(=O)Oc2ccccc2)CC1 (stereo not shown) [Example 26, phenyl 4-{1-[(4-chlorophenyl)formamido]-3-methylbutyl}piperidine-1-carboxylate] | 5.01 nM
24 | NC(=O)c1ccc(C(=O)NC(c2ccccc2)C2CCN(C(=O)Oc3ccccc3)CC2)nc1 (stereo not shown) [Example 103, phenyl 4-{[(5-carbamoylpyridin-2-yl)formamido](phenyl)methyl}piperidine-1-carboxylate] | 10000 nM
25 | Cc1nccc(OC(=O)N2CCC([C@H](NC(=O)c3ccc(Cl)s3)C3CC3)CC2)c1C [Example 7, 2,3-dimethylpyridin-4-yl 4-[(R)-[(5-chlorothiophen-2-yl)formamido](cyclopropyl)methyl]piperidine-1-carboxylate] | 2 nM
26 | Cc1ncnc(C)c1OC(=O)N1CCC(C(CC(C)C)NC(=O)c2ccc(Cl)cc2)CC1 (stereo not shown) [Example 15, 4,6-dimethylpyrimidin-5-yl 4-{1-[(4-chlorophenyl)formamido]-3-methylbutyl}piperidine-1-carboxylate] | 2.51 nM
27 | COc1ccc(C(=O)NC(c2ccccc2)C2CCN(C(=O)Oc3ccccc3)CC2)cc1F (stereo not shown) [Example 57, phenyl 4-{[(3-fluoro-4-methoxyphenyl)formamido](phenyl)methyl}piperidine-1-carboxylate] | 39.8 nM
28 | CC(C)C[C@H](NC(=O)c1ccc(Cl)s1)C1CCN(C(=O)Oc2ccccc2)CC1 [Example 58, phenyl 4-[(1S)-1-[(5-chlorothiophen-2-yl)formamido]-3-methylbutyl]piperidine-1-carboxylate] | 39.8 nM
